# What was measured:
# h NaV1.5 = target: T1, h NaV1.5 (Homo sapiens, UniProt Q14524, R1027Q); assay: TEVC recordings in X. laevis oocytes, NaV1.5; assay type: cell-based; conditions: for Ionic current block INa: from inhibition curves, used for simulation
# T1 construct: expressed in transfected cells; host or cells: Xenopus laevis oocytes injected with cRNA
# Method: To obtain X. laevis oocytes, the frogs were anesthetized with 2 g/L of tricaine methanesulfonate, and the ovarian lobes were mechanically separated with forceps. The oocytes were incubated for 120 min in an OR2 solution containing in mM: NaCl 82.5, KCl 2, MgCl2 1, HEPES 5 (pH 7.5) supplemented with 2 mg/ml of collagenase II (Sigma) to remove residual connective tissue and obtain individual oocytes. Subsequently, the oocytes were washed with a ND96 solution containing in mM: NaCl 96, KCl 2, CaCl2 1.8, MgCl2 1, HEPES 5 (pH 7.5, adjusted with NaOH) and stored at 18 °C in ND96 solution supplemented with 1 ml of gentamicin (50 mg/L), sodium pyruvate (275 mg/L) and (90 mg/L) theophylline (inhibits further oocyte maturation) before and after RNA injection.
# (§1) In order to overexpress the channel in the oocyte, each of the channels to be measured was subcloned (complementary DNA (cDNA); human TASK-1 (KCNK3, NM_002246), h KV1.5 (KCNA5, NM_002234), h NaV1.5 (hH1, M77235), TASK-4/TALK-2 (KCNK17, NM_AF358910), TREK-1 (KCNK2, AF004711) and Kir2.1 (KCNJ2, NM_017296) into pSGEM, pBF1 or pSP64 expression vector, and the cDNA was linearized with NheI or MluI. Complementary RNA (cRNA) was synthesized with the mMESSAGE mMACHINE-Kit (Ambion). The quality of the cRNA was tested on an agarose gel by electrophoresis. cRNA was quantified using a UV-Vis spectrophotometer (NanoDrop 2000). Subsequently, the channel was transfected in the oocytes in stages V and VI, for which 50 nl (TASK-1, KV1.5 or TREK-1), 10 ng (NaV1.5 or TASK-4) o 2.5 ng (Kir2.1) per oocyte of cRNA was injected with a NanojectII microinjector (Drummond Scientific). The oocytes were stored in 24-well plates for 24 to 48 h at 18 °C. After this time, the overexpression of each channel was monitored through electrophysiology.
# Two-electrode voltage clamp measurements were performed 24 or 48 h after cRNA injection at room temperature (20–22 °C) in ND96 recording solution with a TurboTEC-10CD (npi) amplifier and a Digidata 1550B (for TASK-1 and KV1.5) and 1440A (for NaV1.5) A/D converter from Axon Instruments. Micropipettes were fabricated from GB 150 TF-8P borosilicate glass capillaries (Science Products) elongated in a DMZ-Universal Puller (Zeitz, Germany). […] ND96 was used as bath solution. Data acquisition was performed using Clampex 10 software (Axon Instruments), and data were analyzed with ClampFit 10 (Axon Instruments) and Origin 7 (Origin Lab Corporation).
# For compound inhibition testing, from a holding potential of −80 mV a first test pulse to 0 mV of 1 s duration was followed by a repolarization step at −80 mV for 1 s, directly followed by another 1 s test pulse at +40 mV. The sweep time interval was 10 s for KV1.5 and TASK-1 channels. For the NaV1.5 channel, the block was analyzed with voltage steps from a holding potential of −80 mV. A first depolarizing pulse to −30 mV of 50 ms duration was applied, followed by a 5 ms step to −80 mV. The sweep time interval was 5 s. The compounds were applied at different concentrations to determine the half-maximal inhibitory concentration (IC50), using a fit to the Hill equation.
# To test for a putative voltage-dependence of the block by the compound 6f in KV1.5, a 1.5 s voltage step protocol from −80 to +80 mV with +20 mV increments was used. The holding potential was −80 mV and the sweep time interval was 10 s. Currents were analyzed at the end of the voltage pulse. For TASK-1, voltage-dependence of block was probed using a high-potassium solution (KD96) containing in mM: KCl 96, NaCl 2, CaCl2 1.8, MgCl2 1, HEPES 5, (pH 7.5, adjusted with KOH). From a holding potential of 0 mV, voltage was stepped from −80 mV to +80 mV for 1.5 s in +20 mV steps every 10 s. To determine the current-voltage relationship of the NaV1.5 channel, the voltage was stepped for 50 ms from a holding potential of −80 mV to −70 mV to +80 mV in +10 mV increments every 5 s. The peak currents were subsequently plotted against the respective applied voltages.
# TREK-1 = target: T2, TREK-1 (Homo sapiens, UniProt O95069); assay: TEVC selectivity in X. laevis oocytes, TREK-1; assay type: cell-based; conditions: mean ± SD, n = 4, read-out: Effect on TREK-1 (inhibition; negative = activating)
# T2 construct: expressed in transfected cells; host or cells: Xenopus laevis oocytes injected with cRNA
# T2 sequence (O95069 1-426): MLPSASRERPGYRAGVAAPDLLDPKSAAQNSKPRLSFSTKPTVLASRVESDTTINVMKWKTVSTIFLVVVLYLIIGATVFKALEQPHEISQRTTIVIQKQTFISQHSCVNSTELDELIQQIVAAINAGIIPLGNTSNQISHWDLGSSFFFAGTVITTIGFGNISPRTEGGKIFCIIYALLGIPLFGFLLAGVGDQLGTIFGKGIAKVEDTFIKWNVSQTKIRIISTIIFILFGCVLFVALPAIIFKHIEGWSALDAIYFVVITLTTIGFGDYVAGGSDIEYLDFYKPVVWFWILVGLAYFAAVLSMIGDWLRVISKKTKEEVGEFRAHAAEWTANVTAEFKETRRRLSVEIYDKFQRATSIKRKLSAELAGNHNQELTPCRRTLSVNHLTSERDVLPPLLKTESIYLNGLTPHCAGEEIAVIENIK
# Method: After confirming compound 6f simultaneous blockade of TASK-1, KV1.5, and NaV1.5, other cardiac channels (Kir2.1, TREK-1, TASK-4) were tested for selectivity at 100 μM (Fig. 8).
# To obtain X. laevis oocytes, the frogs were anesthetized with 2 g/L of tricaine methanesulfonate, and the ovarian lobes were mechanically separated with forceps. The oocytes were incubated for 120 min in an OR2 solution containing in mM: NaCl 82.5, KCl 2, MgCl2 1, HEPES 5 (pH 7.5) supplemented with 2 mg/ml of collagenase II (Sigma) to remove residual connective tissue and obtain individual oocytes. […]
# as §1, with “Subsequently, the channel was transfected in the oocytes in stages V and VI, for which 50 nl (TASK-1, KV1.5 or TREK-1), 10 ng (NaV1.5 or TASK-4) o 2.5 ng (Kir2.1) per oocyte of cRNA was injected with a NanojectII microinjector (Drummond Scientific). The oocytes were stored in 24-well plates for 24 to 48 h at 18 °C.” left out, “electrophysiology. […]” for “electrophysiology.”
# T1 sequence (Q14524 whole entry R1027Q): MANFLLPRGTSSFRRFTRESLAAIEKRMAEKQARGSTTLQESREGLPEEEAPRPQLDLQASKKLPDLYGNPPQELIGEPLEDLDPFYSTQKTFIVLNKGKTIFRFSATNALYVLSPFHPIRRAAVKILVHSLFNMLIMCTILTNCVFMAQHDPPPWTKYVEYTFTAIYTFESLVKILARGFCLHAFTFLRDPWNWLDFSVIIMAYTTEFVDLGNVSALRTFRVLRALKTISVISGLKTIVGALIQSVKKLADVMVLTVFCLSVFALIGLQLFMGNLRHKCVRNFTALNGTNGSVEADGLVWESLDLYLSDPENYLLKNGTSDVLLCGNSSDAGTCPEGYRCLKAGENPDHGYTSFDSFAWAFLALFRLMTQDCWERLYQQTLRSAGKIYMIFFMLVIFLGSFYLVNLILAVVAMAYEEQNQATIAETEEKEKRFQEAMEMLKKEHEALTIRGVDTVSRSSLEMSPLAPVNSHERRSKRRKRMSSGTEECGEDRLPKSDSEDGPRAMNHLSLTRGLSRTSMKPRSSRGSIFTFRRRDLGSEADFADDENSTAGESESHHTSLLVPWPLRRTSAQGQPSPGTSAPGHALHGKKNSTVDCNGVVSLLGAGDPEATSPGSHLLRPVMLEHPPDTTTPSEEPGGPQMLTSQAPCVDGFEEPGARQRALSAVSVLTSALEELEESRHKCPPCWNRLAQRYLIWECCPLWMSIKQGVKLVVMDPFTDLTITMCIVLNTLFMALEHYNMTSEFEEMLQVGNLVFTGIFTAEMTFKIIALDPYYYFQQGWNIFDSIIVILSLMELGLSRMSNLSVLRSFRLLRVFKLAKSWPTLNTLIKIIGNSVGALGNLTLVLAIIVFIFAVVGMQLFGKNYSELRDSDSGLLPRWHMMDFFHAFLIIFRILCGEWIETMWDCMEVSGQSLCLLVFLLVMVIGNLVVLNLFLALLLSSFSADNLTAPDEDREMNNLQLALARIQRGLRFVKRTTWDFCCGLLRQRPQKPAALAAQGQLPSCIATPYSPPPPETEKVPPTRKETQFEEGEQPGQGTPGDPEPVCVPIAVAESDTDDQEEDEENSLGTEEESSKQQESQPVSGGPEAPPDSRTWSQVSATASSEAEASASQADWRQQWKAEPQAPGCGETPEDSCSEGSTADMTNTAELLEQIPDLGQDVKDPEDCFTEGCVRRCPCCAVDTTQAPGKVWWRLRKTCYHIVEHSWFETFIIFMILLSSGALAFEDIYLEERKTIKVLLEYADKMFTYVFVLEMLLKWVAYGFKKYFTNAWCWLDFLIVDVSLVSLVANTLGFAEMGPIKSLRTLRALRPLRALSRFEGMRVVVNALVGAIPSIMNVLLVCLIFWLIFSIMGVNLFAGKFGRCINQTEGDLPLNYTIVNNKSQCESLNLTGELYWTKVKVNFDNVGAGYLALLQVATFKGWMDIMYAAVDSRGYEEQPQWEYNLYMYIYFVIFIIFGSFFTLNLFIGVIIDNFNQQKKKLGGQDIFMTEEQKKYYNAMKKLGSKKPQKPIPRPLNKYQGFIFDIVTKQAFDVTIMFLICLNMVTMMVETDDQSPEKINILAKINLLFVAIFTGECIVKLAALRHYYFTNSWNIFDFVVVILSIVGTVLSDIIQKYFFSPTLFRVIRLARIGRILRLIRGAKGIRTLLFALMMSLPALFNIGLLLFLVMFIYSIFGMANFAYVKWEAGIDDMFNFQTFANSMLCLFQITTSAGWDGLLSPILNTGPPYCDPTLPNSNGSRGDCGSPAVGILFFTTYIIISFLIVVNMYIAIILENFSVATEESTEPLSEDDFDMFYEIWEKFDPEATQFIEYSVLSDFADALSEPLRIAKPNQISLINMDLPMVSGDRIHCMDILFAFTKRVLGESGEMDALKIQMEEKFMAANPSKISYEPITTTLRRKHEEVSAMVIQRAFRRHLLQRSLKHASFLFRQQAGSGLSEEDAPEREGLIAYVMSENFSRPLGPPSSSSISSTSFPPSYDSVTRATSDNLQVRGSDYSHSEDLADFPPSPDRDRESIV
compound,measurement,setting,value
"CCCCN(CCCC)CC(=O)Nc1ccc(OC)cc1OC [Compound 6f, 2-(dibutylamine)-N-(2,4-dimethoxiphenyl)acetamide]",Ionic current block INa,h NaV1.5; 1 μM,16%
same,Ionic current block INa,h NaV1.5; 10 μM,30%
same,Ionic current block INa,h NaV1.5; 100 μM,65%
same,inhibition at 100 µM,"h NaV1.5; 100 μM, −30 mV, oocytes, mean ± SD",62.4 ± 20.6%
same,Voltage-dependence of block of NaV1.5,"h NaV1.5; oocytes, 100 μM",small but significant variations
same,Frequency-dependent inhibition of NaV1.5,"h NaV1.5; oocytes, 100 μM, 1, 2 and 3 Hz",did not observe a significant frequency-dependent inhibition
same,inhibition at 100 µM,TREK-1,-8.71%
